From PMC5706701, “Development of a homogenous high-throughput assay for inositol hexakisphosphate kinase 1 activity” (PLoS ONE, 2017) come the findings set out here.

This assay addresses T1, Human IP6K1 (Homo sapiens, UniProt Q92551).
T1 construct: GST (N, cleaved yes); made in house; host or cells: C43 E. coli, pGEX-6P-2
Put plainly: IP6K1 high-throughput screen of the Sigma LOPAC (ADP-Glo Max, single point).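 Further: final compound concentration 10µM in 5% DMSO.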 It is filed as biochemical. A general note: ADP-Glo turns the ADP formed in a reaction into a luminescent signal.

The mark [1] stands for this setting: Sigma LOPAC single-point screen, ADP-Glo Max raw signal per well.
The mark [2] stands for this setting: Sigma LOPAC single-point screen, Z-score from plate average and StDev.
The mark [3] stands for this setting: LOPAC single-point screen, ADP-Glo Max luminescence raw signal per well.
The mark [4] stands for this setting: LOPAC single-point screen, Z-score relative to plate average and StDev.
[5] abbreviates: LOPAC single-point screen, Z-score from plate average and StDev.
[6] abbreviates: LOPAC single-point screen, ADP-Glo Max raw signal per well.
Where [7] appears, read: LOPAC single-point screen, Z-score against plate average and StDev.
Setting [8] is: LOPAC single-point screen, Z-score from raw signal with plate average and StDev.

Structures can show the parent of a compound that is named as a salt.

T1 sequence (Q92551 whole entry): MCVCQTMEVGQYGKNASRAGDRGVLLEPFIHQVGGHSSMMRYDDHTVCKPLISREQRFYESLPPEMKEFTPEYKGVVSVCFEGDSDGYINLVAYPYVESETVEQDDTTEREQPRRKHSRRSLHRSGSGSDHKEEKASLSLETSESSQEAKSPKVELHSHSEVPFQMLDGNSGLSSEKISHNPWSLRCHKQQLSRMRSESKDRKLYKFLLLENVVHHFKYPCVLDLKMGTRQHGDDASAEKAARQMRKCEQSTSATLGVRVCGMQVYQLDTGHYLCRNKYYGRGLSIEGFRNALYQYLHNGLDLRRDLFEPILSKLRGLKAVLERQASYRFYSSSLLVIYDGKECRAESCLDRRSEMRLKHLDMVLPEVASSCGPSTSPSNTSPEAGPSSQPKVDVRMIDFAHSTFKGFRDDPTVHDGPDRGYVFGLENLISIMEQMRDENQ

In the case of `CN(C)c1ccc(/C=C2\C(=O)Nc3ccccc32)cc1` [SU 4312], the “Raw Signal” value under setting [1] is recorded as 60273. In addition, the Z-score under setting [2] worked out at 0.8255.
As to `C[C@@H]1O[C@@H](O[C@H]2C[C@@H](O)[C@]3(CO)[C@H]4[C@H](O)C[C@]5(C)[C@@H]([C@@H]6COC(=O)C6)CC[C@]5(O)[C@@H]4CC[C@]3(O)C2)[C@H](O)[C@H](O)[C@H]1O` [Dihydroouabain], the “Raw Signal” value under setting [3] is given as 48437. The same molecule registered a Z-score under setting [4] of -1.3668.
Regarding `CC(C)NCC(O)COc1cccc2[nH]ccc12` (centres unmarked) [Pindolol], under setting [3], the “Raw Signal” value amounted to 62809. Under setting [5], this molecule showed a Z-score of 1.414.
As for `CC(=O)OCC1=C(C(=O)[O-])N2C(=O)[C@@H](NC(=O)CCC[C@@H](N)C(=O)[O-])[C@H]2SC1.[Zn+2]` [Cephalosporin C zinc salt], the “Raw Signal” value under setting [6] came out at 57645. In addition, the Z-score under setting [7] is recorded as -0.04722.
In the case of `CCCCCCCCCCCCCC(=O)O[C@@H]1[C@@H](C)[C@@]2(O)[C@@H](C=C(CO)C[C@]3(O)C(=O)C(C)=C[C@@H]23)[C@@H]2C(C)(C)[C@]12OC(C)=O` [Phorbol 12-myristate 13-acetate], under setting [6], the “Raw Signal” value is listed as 57693. The same molecule displayed a Z-score under setting [7] of 0.3243.
Molecule `C[N+]1(C)CCOC(O)(c2ccc(-c3ccc(C4(O)C[N+](C)(C)CCO4)cc3)cc2)C1` (centres unmarked) [Hemicholinium-3] displayed a Z-score under setting [8] of -0.115.
For the molecule `C[C@@]12N[C@@H](Cc3ccccc31)c1ccccc12.O=C(O)/C=C\C(=O)O` [(-)-MK-801 hydrogen maleate], the “Raw Signal” value under setting [1] was determined as 58481. This molecule also had a Z-score under setting [2] of 0.6868.
With `CCCCCCCC/C=C\CCCCCCCC(=O)O` [Oleic Acid], under setting [6], the “Raw Signal” value came to 53829. This molecule also returned a Z-score under setting [8] of -0.09485.
Consider `CC(N)=NCc1cccc(CN)c1.Cl.Cl` [1400W dihydrochloride], for which the “Raw Signal” value under setting [6] is given as 55005. Further, under setting [8], the Z-score is recorded as -0.1979.
In the case of `COc1cc(C[C@@H](C)N)c(OC)cc1I.Cl` [( R)-(-)-DOI hydrochloride], the “Raw Signal” value under setting [6] was 54807. Further, under setting [7], the Z-score was -0.07312.
For `COc1ccc([C@@H]2Sc3ccccc3N(CCN(C)C)C(=O)[C@@H]2OC(C)=O)cc1` [Diltiazem hydrochloride], the “Raw Signal” value under setting [3] was found to be 65486. Under setting [5], this molecule returned a Z-score of 2.096.
For `C#C[C@]1(O)CC[C@H]2[C@@H]3CCC4=Cc5oncc5C[C@]4(C)[C@H]3CC[C@@]21C` [Danazol], the “Raw Signal” value under setting [6] is 54357. For the same molecule, the Z-score under setting [8] is on record as -0.1645.
For the molecule `C[C@@]1(C2CCCC2)Cc2cc(OCC(=O)O)c(Cl)c(Cl)c2C1=O` [R(+)-IAA-94], the “Raw Signal” value under setting [3] stood at 46670. This molecule displayed a Z-score under setting [4] of -1.298.
As to `O=c1cc(-c2ccc(O)c(O)c2)oc2cc(O)cc(O)c12` [Luteolin], the “Raw Signal” value under setting [3] turned out to be 50800. Under setting [4], the Z-score is reported as -0.6038.
On to `Cc1ccc(Cl)c(Nc2ccccc2C(=O)O)c1Cl` [Meclofenamic acid sodium], for which the “Raw Signal” value under setting [1] was 59966. Also, the Z-score under setting [2] stood at 0.9363.
As for `COc1cc(C(=O)OCCCN2CCCN(CCCOC(=O)c3cc(OC)c(OC)c(OC)c3)CC2)cc(OC)c1OC` [Dilazep hydrochloride], the “Raw Signal” value under setting [6] was 56027. Besides, the Z-score under setting [7] was 0.1747.
As for `N#C/C(=C\c1ccc(O)c(O)c1)C(=O)N1CCc2ccccc21` [Tyrphostin AG 528], the “Raw Signal” value under setting [1] worked out at 58882. This molecule yielded a Z-score under setting [2] of 0.5553.
For `Brc1ccc([C@H]2CN3CCSC3=N2)cc1.O=C(O)C(=O)O` [S(-)-p-Bromotetramisole oxalate], the “Raw Signal” value under setting [1] was 61891. The same molecule came in with a Z-score under setting [2] of 0.7006.
On to `O=S(=O)(c1cccc2c(I)cccc12)N1CCCNCC1` [ML-7], for which the “Raw Signal” value under setting [3] came to 65221. In addition, under setting [5], the Z-score stood at 1.8193.
On to `NNCCc1ccccc1` [Phenelzine sulfate], for which the “Raw Signal” value under setting [1] amounted to 58733. Also, under setting [2], the Z-score was 0.5263.
For the molecule `COc1cc(OC)c(C=C2C(O)=Nc3ccccc32)c(OC)c1` [IC 261], the “Raw Signal” value under setting [6] was 54461. The Z-score under setting [8] is -0.3036.
For the molecule `C[C@]12CC[C@@H](O)C[C@@H]1CC[C@@H]1[C@@H]2CC[C@]2(C)[C@@H](O)CC[C@@H]12` [5alpha-Androstane-3alpha,17beta-diol], under setting [3], the “Raw Signal” value is 54542. The Z-score under setting [4] is reported as -0.5937.
Turning to `Cl.c1ccc2nc(C3=NCCN3)ccc2c1` [BU224 hydrochloride], the “Raw Signal” value under setting [1] came out at 61573. Moreover, the Z-score under setting [2] is 0.6446.
In the case of `CN1C2CCC1CC(OC(=O)c1c[nH]c3ccccc13)C2.Cl` (centres unmarked), the “Raw Signal” value under setting [6] came to 56078. This molecule also returned a Z-score under setting [7] of 0.01053.
`CC1(C)CCC=[N+]1[O-]` [5,5-Dimethyl-1-pyrroline-N-oxide]: under setting [3], the “Raw Signal” value amounted to 51954. Under setting [4], the Z-score is listed as -0.6525.
Turning to `C=CCn1c(=O)c2c(nc(-c3ccc(S(=O)(=O)O)cc3)n2C)n(C)c1=O`, the “Raw Signal” value under setting [1] came to 65523. Also, under setting [2], the Z-score is listed as 1.34.
Consider `Cl.NNC(N)=O` [Semicarbazide hydrochloride], for which the “Raw Signal” value under setting [6] is on record as 55828. This molecule gave a Z-score under setting [7] of -0.03804.
The like results for `Cc1ccc(/C(=C\CN2CCCC2)c2ccccn2)cc1.Cl` [Triprolidine hydrochloride] were, in that order, 57463 and 0.2796.
For `Br.NC1CCc2cc(O)c(O)cc2C1` (centres unmarked) [6,7-ADTN hydrobromide], in that order: 55279 and 0.02274.
As for `CCN(CC)CCCCCCCCOC(=O)c1cc(OC)c(OC)c(OC)c1.Cl` [TMB-8 hydrochloride], the “Raw Signal” value under setting [6] amounted to 59541. Under setting [7], this molecule showed a Z-score of 0.2867.
Consider `NS(=O)(=O)c1cc2c(cc1Cl)N=CNS2(=O)=O` [Chlorothiazide], for which, under setting [3], the “Raw Signal” value came to 49210. This molecule registered a Z-score under setting [4] of -1.533.
With `CCN(CC)CCOC(=O)c1cc(Cl)c(N)cc1OC.Cl` [SDZ-205,557 hydrochloride], the “Raw Signal” value under setting [6] was 56215. For the same molecule, the Z-score under setting [7] was 0.03715.
Take `CN1C(=O)CCS(=O)(=O)C1c1ccc(Cl)cc1` (centres unmarked) [Chlormezanone]: under setting [3], the “Raw Signal” value is 52438. Also, the Z-score under setting [4] is -0.5542.
Consider `N=C(N)N/N=C/c1c(Cl)cccc1Cl` [Guanabenz acetate], for which the “Raw Signal” value under setting [6] amounted to 54722. Also, under setting [7], the Z-score is -0.09038.
As to `Cc1nnc(SCC2=C(C(=O)O)N3C(=O)[C@@H](NC(=O)Cn4cnnn4)[C@H]3SC2)s1` [Cefazolin sodium], the “Raw Signal” value under setting [6] was determined as 59148. This molecule also came in with a Z-score under setting [7] of 0.2175.
Regarding `Cl.Nc1cc(Cl)c(N=C2NCCN2)c(Cl)c1` [p-Aminoclonidine hydrochloride], the “Raw Signal” value under setting [6] is recorded as 56073. The same molecule gave a Z-score under setting [8] of -0.3241.
As to `N[C@@H](CC(=O)O)C(=O)O` [L-Aspartic acid], the “Raw Signal” value under setting [6] worked out at 58223. The molecule also showed a Z-score under setting [7] of 0.05458.
`c1ccc2c(CC3=NCCN3)cccc2c1` [Naphazoline hydrochloride]: the “Raw Signal” value under setting [6] came to 52798. This molecule also gave a Z-score under setting [8] of -0.2681.
Regarding `COC(=O)c1c(-c2cc(OC)c(OC)c(OC)c2)c2ccc(OCc3ccccn3)cc2c(=O)n1-c1ccc(N)cc1.O=S(=O)(O)O` [T-1032], the “Raw Signal” value under setting [6] is 55393. Further, the Z-score under setting [8] is recorded as -0.1226.
